Laboratory results published in PubChem BioAssay AID272 (DTP/NCI, 2004).
“And” between values parts separate entries of the source, which are not always exact repeats. Identical values can stand only once. Inconclusive results are not listed.

System: Lewis lung carcinoma i.m., BDF1 mice, T/C %
Test: NCI In Vivo Anticancer Drug Screen. Data for tumor model Lewis Lung Carcinoma (intramuscular) in B6D2F1 (BDF1) mice
Method in brief: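 Mice carrying transplantable tumours received test compound. Survival or tumour size was recorded and expressed as the treated-group value (T) divided by the vehicle-treated control-group value (C).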

CC/C(=C(/CC)c1ccc(O)cc1)c1ccc(O)cc1
T/C (endpoint: mean tumor weight, dose: 25.0 mg/kg/injection, schedule: Q01DX011 (ip), vehicle: steriod suspending solution, higher = larger tumour): 43 % of control
T/C (endpoint: mean tumor weight, dose: 50.0 mg/kg/injection, schedule: Q01DX011 (ip), vehicle: steriod suspending solution, higher = larger tumour): 29 % of control
T/C (endpoint: mean tumor weight, dose: 100.0 mg/kg/injection, schedule: Q01DX011 (ip), vehicle: steriod suspending solution, higher = larger tumour): 14 % of control and 34 % of control
T/C (endpoint: median survival time, dose: 25.0 mg/kg/injection, schedule: Q01DX011 (ip), vehicle: steriod suspending solution, higher = longer survival): 86 % of control
T/C (endpoint: median survival time, dose: 25.0 mg/kg/injection, schedule: Q01DX011 (ip), vehicle: water, higher = longer survival): 91 % of control and 97 % of control
T/C (endpoint: median survival time, dose: 50.0 mg/kg/injection, schedule: Q01DX011 (ip), vehicle: steriod suspending solution, higher = longer survival): 106 % of control
T/C (endpoint: median survival time, dose: 50.0 mg/kg/injection, schedule: Q01DX011 (ip), vehicle: water, higher = longer survival): 92 % of control
T/C (endpoint: median survival time, dose: 100.0 mg/kg/injection, schedule: Q01DX011 (ip), vehicle: steriod suspending solution, higher = longer survival): 104 % of control
T/C (endpoint: median survival time, dose: 100.0 mg/kg/injection, schedule: Q01DX011 (ip), vehicle: water, higher = longer survival): 97 % of control and 101 % of control

COc1cc([C@@H]2c3cc4c(cc3[C@@H](OC3OC5CO[C@@H](c6cccs6)OC5C(O)C3O)[C@H]3COC(=O)[C@H]23)OCO4)cc(OC)c1O (stereo partly specified)
T/C (endpoint: mean tumor weight (est.), dose: 0.25 mg/kg/injection, schedule: Q01DX011 (ip), vehicle: saline, higher = larger tumour): 98 % of control
T/C (endpoint: mean tumor weight (est.), dose: 0.5 mg/kg/injection, schedule: Q01DX011 (ip), vehicle: saline, higher = larger tumour): 74 % of control
T/C (endpoint: mean tumor weight (est.), dose: 1.0 mg/kg/injection, schedule: Q01DX011 (ip), vehicle: saline, higher = larger tumour): 68 % of control
T/C (endpoint: mean tumor weight (est.), dose: 2.0 mg/kg/injection, schedule: Q01DX011 (ip), vehicle: saline, higher = larger tumour): 45 % of control
T/C (endpoint: median survival time, dose: 0.25 mg/kg/injection, schedule: Q01DX011 (ip), vehicle: saline, higher = longer survival): 118 % of control
T/C (endpoint: median survival time, dose: 0.5 mg/kg/injection, schedule: Q01DX011 (ip), vehicle: saline, higher = longer survival): 104 % of control
T/C (endpoint: median survival time, dose: 1.0 mg/kg/injection, schedule: Q01DX011 (ip), vehicle: saline, higher = longer survival): 106 % of control
T/C (endpoint: median survival time, dose: 2.0 mg/kg/injection, schedule: Q01DX011 (ip), vehicle: saline, higher = longer survival): 114 % of control
T/C (endpoint: median survival time, dose: 2.0 mg/kg/injection, schedule: Q04DX003 (ip), vehicle: saline, higher = longer survival): 104 % of control
T/C (endpoint: median survival time, dose: 4.0 mg/kg/injection, schedule: Q04DX003 (ip), vehicle: saline, higher = longer survival): 105 % of control
T/C (endpoint: median survival time, dose: 8.0 mg/kg/injection, schedule: Q04DX003 (ip), vehicle: saline, higher = longer survival): 115 % of control
T/C (endpoint: median survival time, dose: 32.0 mg/kg/injection, schedule: Q04DX003 (ip), vehicle: saline, higher = longer survival): 37 % of control

CN(C)C(=O)c1cccc(COc2ccc(N3C(N)=NC(N)=NC3(C)C)cc2Cl)c1
T/C (endpoint: mean tumor weight, dose: 3.13 mg/kg/injection, schedule: Q01DX011 (ip), vehicle: saline, higher = larger tumour): 66 % of control
T/C (endpoint: mean tumor weight, dose: 12.5 mg/kg/injection, schedule: Q01DX011 (ip), vehicle: saline, higher = larger tumour): 66 % of control
T/C (endpoint: median survival time, dose: 3.13 mg/kg/injection, schedule: Q01DX011 (ip), vehicle: saline, higher = longer survival): 103 % of control
T/C (endpoint: median survival time, dose: 12.5 mg/kg/injection, schedule: Q01DX011 (ip), vehicle: saline, higher = longer survival): 88 % of control

OCCNC1c2ccccc2-c2ccccc21
T/C (endpoint: mean tumor weight (est.), dose: 25.0 mg/kg/injection, schedule: Q01DX011 (ip), vehicle: saline with Tween-80, higher = larger tumour): 90 % of control
T/C (endpoint: mean tumor weight (est.), dose: 50.0 mg/kg/injection, schedule: Q01DX011 (ip), vehicle: saline with Tween-80, higher = larger tumour): 91 % of control
T/C (endpoint: mean tumor weight (est.), dose: 100.0 mg/kg/injection, schedule: Q01DX011 (ip), vehicle: saline with Tween-80, higher = larger tumour): 67 % of control
T/C (endpoint: median survival time, dose: 50.0 mg/kg/injection, schedule: Q01DX011 (ip), vehicle: saline with Tween-80, higher = longer survival): 112 % of control

CC(=O)NC(CS)C(=O)O (stereo unspecified)
T/C (endpoint: mean tumor weight (est.), dose: 750.0 mg/kg/injection, schedule: Q01DX009 (ip), vehicle: saline, higher = larger tumour): 91 % of control
T/C (endpoint: mean tumor weight (est.), dose: 1500.0 mg/kg/injection, schedule: Q01DX009 (ip), vehicle: saline, higher = larger tumour): 86 % of control

N=c1ccn2c(n1)OC1C(OP(=O)(O)O)C(CO)OC12 (stereo unspecified)
T/C (endpoint: mean tumor weight (est.), dose: 12.5 mg/kg/injection, schedule: Q01DX011 (oral), vehicle: water, higher = larger tumour): 79 % of control
T/C (endpoint: mean tumor weight (est.), dose: 25.0 mg/kg/injection, schedule: Q01DX011 (oral), vehicle: water, higher = larger tumour): 71 % of control
T/C (endpoint: mean tumor weight (est.), dose: 50.0 mg/kg/injection, schedule: Q01DX011 (oral), vehicle: water, higher = larger tumour): 13 % of control
T/C (endpoint: mean tumor weight (est.), dose: 100.0 mg/kg/injection, schedule: Q01DX011 (oral), vehicle: water, higher = larger tumour): 12 % of control
T/C (endpoint: mean tumor weight (est.), dose: 200.0 mg/kg/injection, schedule: Q01DX011 (oral), vehicle: water, higher = larger tumour): 12 % of control
T/C (endpoint: median survival time, dose: 12.5 mg/kg/injection, schedule: Q01DX011 (oral), vehicle: water, higher = longer survival): 109 % of control
T/C (endpoint: median survival time, dose: 25.0 mg/kg/injection, schedule: Q01DX011 (oral), vehicle: water, higher = longer survival): 105 % of control
T/C (endpoint: median survival time, dose: 50.0 mg/kg/injection, schedule: Q01DX011 (oral), vehicle: water, higher = longer survival): 118 % of control
T/C (endpoint: median survival time, dose: 100.0 mg/kg/injection, schedule: Q01DX011 (oral), vehicle: water, higher = longer survival): 120 % of control
T/C (endpoint: median survival time, dose: 200.0 mg/kg/injection, schedule: Q01DX011 (oral), vehicle: water, higher = longer survival): 116 % of control
